Drawing on patent US10889569B2, “Condensed ring group azacyclobutyl triazole derivative, preparation method therefor and use thereof in medicine” (Jiangsu Hengrui Medicine Co., Ltd., priority 2016, dated 2021), this text covers IC50 and Kp for two molecules.

The target of one data set is human V1bR (Homo sapiens, UniProt P47901). Description: Inhibition activity on human V1bR (Fluo-4 calcium assay, HEK293/human V1bR pool cells). Type of data set: cell-based. Particulars: vasopressin 3 nM. Here is the method: The inhibition effect of the compounds of the present invention on the activity of human V1bR protein expressed in HEK293/human V1bR cells was determined by the following experimental method:
The pcDNA3.1-V1bR plasmid was transferred into HEK293 cells with the Lipofectamine® 3000 transfection reagent; G418 was added on the next day, and the HEK293/human V1bR pool cell lines were obtained.
HEK293/human V1bR pool cells were inoculated in a 96-well plate with an inoculation density of 25,000 cells/well one day in advance. On the next day, a loading buffer containing Fluo-4 dye was formulated using the reagents in the Fluo-4 NW calcium assay kit, and the culture medium was then removed; 100 μl of the loading buffer containing Fluo-4 dye were added to each well, and the plate was incubated at 37° C. for 30 minutes. After that, the plate was moved to room temperature and equilibrated for 10 minutes. The compounds were formulated into 10^6, 10^5, 10^4, 10^3, 10^2 and 10^1 nM. 1 μl of the compounds in each concentration was added to each well, and the plate was incubated at room temperature for 10 minutes. 50 μl of vasopressin polypeptide (3 nM) were automatically added by the machine, and the values were immediately detected at 494/516 nM by the flexstation 3 microplate reader. IC50 values of the compounds were calculated by Graphpad prism software using fluorescence signals corresponding to different concentrations.
The inhibition activity of the compounds of the present invention on human V1bR was determined by the above test, and the obtained IC50 values are shown in Table 3.

The target of the next data set is human V1aR (Homo sapiens (Human), UniProt P37288). Description: Inhibition activity on human V1aR (Fluo-4 calcium assay, HEK293/human V1aR stably transfected cells). Type of data set: cell-based. The settings on record: vasopressin 3 nM. The essentials: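 Stable HEK293/human V1aR cells, 25,000 cells/well, loaded with Fluo-4 for 30 minutes at 37° C. then 10 minutes room temperature; compounds (formulated at 10^1–10^6 nM) added 10 minutes before 3 nM vasopressin. Calcium fluorescence read immediately at 494/516; IC50 from concentration–signal curves.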
Sequence of human V1aR (P37288 whole entry): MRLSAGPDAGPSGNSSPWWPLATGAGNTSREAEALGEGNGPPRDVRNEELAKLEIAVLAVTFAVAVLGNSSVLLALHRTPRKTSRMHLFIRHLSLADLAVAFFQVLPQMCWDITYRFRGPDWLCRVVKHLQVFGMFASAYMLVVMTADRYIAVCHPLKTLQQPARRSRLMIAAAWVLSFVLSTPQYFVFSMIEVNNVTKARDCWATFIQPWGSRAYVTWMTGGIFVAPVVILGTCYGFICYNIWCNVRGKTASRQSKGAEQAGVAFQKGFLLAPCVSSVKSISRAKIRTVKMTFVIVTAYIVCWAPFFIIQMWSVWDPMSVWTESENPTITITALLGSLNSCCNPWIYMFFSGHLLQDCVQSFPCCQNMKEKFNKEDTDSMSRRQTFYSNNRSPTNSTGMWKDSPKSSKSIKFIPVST

Data set [1] can be described thus: Brain permeability of rats (Kp-unbound). It counts as in vivo. Particulars: both sexes, rat, not told, po; SD rats, 10 mg/kg intragastrically, 0.5 h after administration; read-out: Kp-unbound (blood-brain permeability index). On the procedure:
The activity of the compounds of the present invention on the brain permeability of rats was determined by the following experimental method:
Four SD rats (half male and half female) were maintained in a 12 hours light/12 hours dark cycle, in a constant temperature of 24±3° C. and a humidity of 50-60%, and free access to food and water. The compounds were administered intragastrically to the rats after fasting overnight. The administration dosage was 10 mg/kg. The administration group was sacrificed after blood collection at 0.5 h to 2 h after administration (blood volume: 0.5 ml). The blood sample was stored in heparinized tubes, and centrifuged for 10 minutes at 3500 rpm to separate the plasma, which was marked as plasma 1 and stored at […]. The animal was decapitated after sacrificing, and the brain tissue was collected. The residual blood in the brain tissue was sucked with a filter paper, which was marked as brain tissue 1, and stored at 0° C. ten minutes later. Another three animals were treated by the same method as that of administration group to obtain blank plasma and brain tissue 2.
The drug compounds were diluted to 50 mM with DMSO to obtain a stock solution I. An appropriate amount of stock solution I was diluted with methanol to obtain a diluted stock solution II (200 μM). 10 μl of stock solution II was moved to a 1.5 ml Eppendorf tube, and then added with 990 μl of blank plasma, and mixed well to obtain 2 μM of plasma sample 2 (concentration of DMSO≤0.2%), which was used for the determination of plasma protein binding rate at this concentration. […]
The equilibrium dialysis tube of RED Device Inserts was inserted into a 96-well plate. […] The chromatographic peak area ratios of the total drug (plasma chamber) and the free drug (buffer chamber) to the internal standard were determined directly by the LC/MS/MS method established above respectively, and the free percent (fu plasma %) was calculated.
Brain tissue protein binding equilibrium dialysis process: the blank brain tissue 2 was formulated into a blank brain homogenate with PBS (pH 7.4) according to a dilution factor of 11, and added with compound to formulate a 2 μM brain homogenate. Other procedures were the same with that of plasma protein binding, the chromatographic peak area ratios of the total drug (brain homo chamber) and the free drug (buffer chamber) to the internal standard were determined by the established LC/MS/MS method respectively, and the free percent (fu brain hom %) was calculated.
1) The drug concentrations in plasma 1 and brain tissue 1 of rats 0.5 h after administration were determined by the established LC/MS/MS method respectively, which were the total concentration (Ctotal, p and Ctotal, b); […]

What is called IC50 is the point on the concentration scale where inhibition reaches its midpoint. Broadly, the Kp is the ratio of the level in a tissue or fluid to that in plasma or blood.

Turning to `COCc1nnc(N2CC(c3cccc4cc(F)ccc34)C2)n1-c1ccc(OC)nc1` [Example 2, 5-(3-(3-(6-Fluoronaphthalen-1-yl)azetidin-1-yl)-5-(methoxymethyl)-4H-1,2,4-triazol-4-yl)-2-methoxypyridine], the IC50 at human V1bR turned out to be 26 µM; at human V1aR, 4.5 µM. In addition, the Kp at 0.5 h in data set [1] was 0.199.

For the molecule `COCc1nnc(N2CC(n3cc(C)c4cc(F)ccc43)C2)n1-c1ccc(OC)nc1` [Example 17, 5-Fluoro-1-(1-(5-(methoxymethyl)-4-(6-methoxypyridin-3-yl)-4H-1,2,4-triazol-3-yl)azetidin-3-yl)-3-methyl-1H-indole], the IC50 was found to be 19.8 µM on human V1bR and 4.4 µM on human V1aR. In data set [1], the Kp at 0.5 h is 0.295.
